Reference: patent US12408662B2, “Hydrogen peroxide and peracid stabilization with molecules based on a pyridine carboxylic acid” (ECOLAB USA INC., priority 2018, dated 2025)

Assay: Stability of peroxyacetic acid compositions with lower acetic acid relative to hydrogen peroxide (Example 3, FIG. 3)
Assay type: physicochemical

SMILES: O=C(O)c1cccnc1 [Niacin, 3-pyridinecarboxylic acid]
- stabilization of peroxyacetic acid (in words): comparable to commonly used stabilizers
